This note sets out measurements from article PMC7827406, “Structure–Activity Relationship (SAR) Study of Spautin-1 to Entail the Discovery of Novel NEK4 Inhibitors” (International Journal of Molecular Sciences, 2021).

Like-named read-outs stand apart in the source and are kept apart here.

Common to all, as to assay: biochemical
Holding throughout (design): Eurofins KinaseProfiler full panel at Km ATP, residual kinase activity (%) relative to DMSO

Assay [1] concerns the target Hck(h) activated (Homo sapiens, UniProt P08631). In outline: (§1)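 Radiometric kinase activity assays were run with ATP at Km and compounds at 10 µM, and remaining activity (%) was reported. A separate competitive binding screen measured DNA-tagged kinase displaced from immobilized active-site ligands by qPCR, giving percent kinase still bound at 10 µM compound in DMSO.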

For assay [2], the target named is Ret(V804M)(h) (Homo sapiens, UniProt P07949, V804M). An outline of the steps: as §1
Assay [3] has as its target T1, LKB1(h) (Homo sapiens, UniProt Q15831).
T1 construct: gene STK11
T1 sequence (Q15831 1-433): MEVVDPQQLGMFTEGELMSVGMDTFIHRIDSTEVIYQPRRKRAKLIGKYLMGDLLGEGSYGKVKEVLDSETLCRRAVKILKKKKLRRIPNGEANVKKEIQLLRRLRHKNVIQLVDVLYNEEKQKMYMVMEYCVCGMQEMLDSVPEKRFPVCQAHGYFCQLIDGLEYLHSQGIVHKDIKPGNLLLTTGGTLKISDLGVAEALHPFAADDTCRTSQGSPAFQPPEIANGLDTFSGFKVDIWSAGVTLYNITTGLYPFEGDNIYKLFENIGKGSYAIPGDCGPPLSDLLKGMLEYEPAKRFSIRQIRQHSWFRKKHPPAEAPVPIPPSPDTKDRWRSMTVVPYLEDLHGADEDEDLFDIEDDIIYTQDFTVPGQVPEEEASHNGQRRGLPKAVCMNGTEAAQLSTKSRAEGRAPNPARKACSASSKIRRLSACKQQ
T1 sequence (Q7RTN6 1-431 partner): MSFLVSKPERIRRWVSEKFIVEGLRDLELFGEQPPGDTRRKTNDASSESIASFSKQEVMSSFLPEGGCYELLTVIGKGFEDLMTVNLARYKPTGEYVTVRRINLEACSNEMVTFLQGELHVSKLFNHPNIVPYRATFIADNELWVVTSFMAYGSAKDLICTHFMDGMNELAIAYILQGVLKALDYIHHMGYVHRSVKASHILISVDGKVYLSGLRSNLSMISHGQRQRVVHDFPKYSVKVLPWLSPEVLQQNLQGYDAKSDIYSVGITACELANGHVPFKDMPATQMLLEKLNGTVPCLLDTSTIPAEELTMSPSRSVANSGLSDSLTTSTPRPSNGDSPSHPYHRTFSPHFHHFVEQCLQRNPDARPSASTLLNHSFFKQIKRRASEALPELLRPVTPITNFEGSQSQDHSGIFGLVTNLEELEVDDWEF
T1 sequence (Q9Y376 1-341 partner): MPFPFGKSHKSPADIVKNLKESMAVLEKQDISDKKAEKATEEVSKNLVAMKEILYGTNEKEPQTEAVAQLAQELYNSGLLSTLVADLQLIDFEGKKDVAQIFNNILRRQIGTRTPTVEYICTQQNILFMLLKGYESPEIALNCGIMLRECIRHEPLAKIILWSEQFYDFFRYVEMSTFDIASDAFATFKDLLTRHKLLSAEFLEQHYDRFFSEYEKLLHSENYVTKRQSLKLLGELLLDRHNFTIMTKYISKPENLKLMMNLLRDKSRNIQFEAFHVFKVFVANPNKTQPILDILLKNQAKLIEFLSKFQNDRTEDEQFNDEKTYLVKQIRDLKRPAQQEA
An outline of the steps: as §1

Assay [4] has as its target T2, TLK1(h) (Homo sapiens, UniProt Q9UKI8).
T2 sequence (Q9UKI8 1-766): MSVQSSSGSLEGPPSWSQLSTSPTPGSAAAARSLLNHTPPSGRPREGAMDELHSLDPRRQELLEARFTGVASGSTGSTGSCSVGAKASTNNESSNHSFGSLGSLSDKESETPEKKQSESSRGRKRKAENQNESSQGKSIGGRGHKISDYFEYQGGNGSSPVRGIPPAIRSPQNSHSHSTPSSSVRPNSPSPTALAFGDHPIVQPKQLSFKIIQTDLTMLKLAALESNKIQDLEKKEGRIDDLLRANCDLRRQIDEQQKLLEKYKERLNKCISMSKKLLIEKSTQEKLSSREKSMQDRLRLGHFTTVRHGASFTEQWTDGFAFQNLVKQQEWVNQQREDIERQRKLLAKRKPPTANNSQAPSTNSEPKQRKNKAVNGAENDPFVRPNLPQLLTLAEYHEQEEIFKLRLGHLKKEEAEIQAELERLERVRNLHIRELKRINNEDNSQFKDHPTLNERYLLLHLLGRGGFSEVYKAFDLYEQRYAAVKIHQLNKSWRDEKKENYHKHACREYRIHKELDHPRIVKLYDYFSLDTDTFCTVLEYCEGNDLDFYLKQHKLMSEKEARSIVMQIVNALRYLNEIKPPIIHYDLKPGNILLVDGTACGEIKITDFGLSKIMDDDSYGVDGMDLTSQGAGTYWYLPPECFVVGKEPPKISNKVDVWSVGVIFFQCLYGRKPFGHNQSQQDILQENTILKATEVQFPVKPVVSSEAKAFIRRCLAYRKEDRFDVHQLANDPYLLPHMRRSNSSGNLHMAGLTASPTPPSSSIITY
In outline:
as §1

Assay [5] concerns the target CLK3(h) (Homo sapiens, UniProt P49761). In outline: as §1
Assay [6] concerns the target STK39(h) (Homo sapiens, UniProt Q9UEW8). An outline of the steps: as §1
[7] abbreviates: read-out: Residual activity (%) Spautin-1 5aa.
Setting [8] is: read-out: Residual activity (%) 5as.
Setting [9] is: read-out: Residual activity (%) 5at.
Setting [10] is: read-out: Residual activity (%) 5ay.

Chain of CLK3(h) (P49761 whole entry): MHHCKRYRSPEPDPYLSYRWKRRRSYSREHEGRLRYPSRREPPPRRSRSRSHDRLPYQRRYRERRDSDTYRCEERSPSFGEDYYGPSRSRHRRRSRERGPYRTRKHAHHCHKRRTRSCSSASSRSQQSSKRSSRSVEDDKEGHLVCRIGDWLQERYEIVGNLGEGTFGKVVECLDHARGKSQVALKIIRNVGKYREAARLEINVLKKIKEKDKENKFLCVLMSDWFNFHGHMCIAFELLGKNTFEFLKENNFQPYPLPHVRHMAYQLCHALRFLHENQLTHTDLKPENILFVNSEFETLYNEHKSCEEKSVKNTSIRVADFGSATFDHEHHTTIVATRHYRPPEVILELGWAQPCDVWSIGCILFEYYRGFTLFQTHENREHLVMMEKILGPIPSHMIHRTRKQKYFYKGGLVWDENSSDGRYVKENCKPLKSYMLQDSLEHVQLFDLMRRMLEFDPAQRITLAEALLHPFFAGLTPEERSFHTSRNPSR
Chain of Ret(V804M)(h) (P07949 whole entry V804M): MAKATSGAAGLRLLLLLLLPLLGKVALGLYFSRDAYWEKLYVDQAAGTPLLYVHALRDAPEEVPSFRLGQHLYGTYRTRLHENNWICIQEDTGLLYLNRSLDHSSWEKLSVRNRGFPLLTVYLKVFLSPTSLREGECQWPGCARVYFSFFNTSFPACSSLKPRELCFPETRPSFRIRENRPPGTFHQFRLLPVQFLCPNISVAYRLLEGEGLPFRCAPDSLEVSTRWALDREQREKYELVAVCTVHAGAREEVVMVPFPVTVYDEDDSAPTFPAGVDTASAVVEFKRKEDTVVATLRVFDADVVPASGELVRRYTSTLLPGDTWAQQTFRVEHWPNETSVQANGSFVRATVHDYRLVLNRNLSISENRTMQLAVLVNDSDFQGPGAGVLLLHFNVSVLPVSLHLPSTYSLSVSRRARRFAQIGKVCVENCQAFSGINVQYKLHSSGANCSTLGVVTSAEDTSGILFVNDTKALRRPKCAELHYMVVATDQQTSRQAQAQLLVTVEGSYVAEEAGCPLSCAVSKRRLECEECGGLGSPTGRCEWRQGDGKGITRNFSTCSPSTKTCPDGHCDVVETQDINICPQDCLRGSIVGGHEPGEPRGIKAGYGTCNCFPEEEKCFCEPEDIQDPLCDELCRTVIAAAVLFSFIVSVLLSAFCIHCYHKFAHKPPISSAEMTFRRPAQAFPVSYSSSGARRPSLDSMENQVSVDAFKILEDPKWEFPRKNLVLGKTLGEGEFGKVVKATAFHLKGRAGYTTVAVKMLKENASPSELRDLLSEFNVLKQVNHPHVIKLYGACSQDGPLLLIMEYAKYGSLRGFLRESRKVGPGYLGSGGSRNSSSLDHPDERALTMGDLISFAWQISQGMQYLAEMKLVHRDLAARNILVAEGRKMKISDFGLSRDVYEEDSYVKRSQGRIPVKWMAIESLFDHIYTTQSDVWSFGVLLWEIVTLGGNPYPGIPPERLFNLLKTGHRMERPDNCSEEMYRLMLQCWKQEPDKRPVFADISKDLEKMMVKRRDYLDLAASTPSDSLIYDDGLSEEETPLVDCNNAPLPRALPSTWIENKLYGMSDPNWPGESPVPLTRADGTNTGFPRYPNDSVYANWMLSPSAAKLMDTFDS
Chain of Hck(h) activated (P08631 whole entry): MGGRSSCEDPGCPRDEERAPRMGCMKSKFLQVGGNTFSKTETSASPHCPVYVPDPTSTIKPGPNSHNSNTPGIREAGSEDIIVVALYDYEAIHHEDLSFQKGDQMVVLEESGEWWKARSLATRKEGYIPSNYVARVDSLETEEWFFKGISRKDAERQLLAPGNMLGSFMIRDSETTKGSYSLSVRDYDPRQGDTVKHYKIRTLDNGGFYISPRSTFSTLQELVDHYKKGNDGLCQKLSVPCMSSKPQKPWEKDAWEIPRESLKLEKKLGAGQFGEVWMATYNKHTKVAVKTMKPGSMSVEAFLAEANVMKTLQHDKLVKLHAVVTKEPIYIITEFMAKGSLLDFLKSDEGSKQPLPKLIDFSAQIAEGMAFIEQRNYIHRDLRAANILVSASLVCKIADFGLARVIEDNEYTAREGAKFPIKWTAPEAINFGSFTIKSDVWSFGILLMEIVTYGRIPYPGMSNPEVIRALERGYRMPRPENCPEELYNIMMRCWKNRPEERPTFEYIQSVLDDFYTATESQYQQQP

For the compound `Fc1ccc(CNc2ncnc3ccc(F)cc23)cc1` [5aa, 6-Fluoro-N-(4-fluorobenzyl)-4-Quinazolinamine], the remaining activity at 10 µM is 85% in assay [1] (setting [7]); 99% in assay [2] (setting [7]); 86% in assay [3] (setting [7]); 112% in assay [4] (setting [7]); 88% in assay [5] (setting [7]); 75% in assay [6] (setting [7]).

`Fc1ccc(CCNc2ncnc3ccc(F)cc23)cc1` [5as, 6-Fluoro-N-[2-(4-Fluorophenyl)Ethyl]-4-Quinazolinamine]: the remaining activity at 10 µM in assay [1] (setting [8]) was 85%; in assay [2] (setting [8]), 85%; in assay [3] (setting [8]) it was 81%; in assay [4] (setting [8]), 112%; in assay [5] (setting [8]), 117%; in assay [6] (setting [8]) it was 100%.

Regarding `Fc1ccc2ncnc(NCCc3ccc(Cl)cc3)c2c1` [5at, N-[2-(4-Chlorophenyl)Ethyl]-6-Fluoro-4-Quinazolinamine], the remaining activity at 10 µM stood at 108% in assay [1] (setting [9]); 73% in assay [2] (setting [9]); 73% in assay [3] (setting [9]); 97% in assay [4] (setting [9]); 116% in assay [5] (setting [9]); 91% in assay [6] (setting [9]).

For the compound `COc1ccc2ncnc(Nc3cccc(F)c3)c2c1` [5ay, N-(3-Fluorophenyl)-6-Methoxy-4-Quinazolinamine], the remaining activity at 10 µM was 46% in assay [1] (setting [10]); 102% in assay [2] (setting [10]); 100% in assay [3] (setting [10]); 107% in assay [4] (setting [10]); 114% in assay [5] (setting [10]); 114% in assay [6] (setting [10]).
